Data published in ChEMBL document CHEMBL1152837, “Ligand binding to nucleic acids and proteins: Does selectivity increase with strength?” (Eur J Med Chem, 2008).

Assays:
[1] = molecular target: Kappa-type opioid receptor (Rattus norvegicus, UniProt P34975); test: Binding affinity to kappa opioid receptor in rat brain membrane; format: cell membranes
Nucleic Acid [2] = test: Binding affinity to poly(dA).poly(dT) DNA assessed as change in melting temperature; format: nucleic-acid assay
Nucleic Acid [3] = test: Binding affinity to poly(dA).poly(dT) duplex DNA assessed as ratio of KA to KB by ESI-MS analysis; format: nucleic-acid assay
[4] = molecular target: Delta-type opioid receptor (Rattus norvegicus, UniProt P33533); test: Binding affinity to delta opioid receptor in rat brain membrane; format: cell membranes
Nucleic Acid [5] = test: Binding affinity to poly(A).poly(U) RNA assessed as change in melting temperature; format: nucleic-acid assay

Sequence of Kappa-type opioid receptor (P34975 whole entry): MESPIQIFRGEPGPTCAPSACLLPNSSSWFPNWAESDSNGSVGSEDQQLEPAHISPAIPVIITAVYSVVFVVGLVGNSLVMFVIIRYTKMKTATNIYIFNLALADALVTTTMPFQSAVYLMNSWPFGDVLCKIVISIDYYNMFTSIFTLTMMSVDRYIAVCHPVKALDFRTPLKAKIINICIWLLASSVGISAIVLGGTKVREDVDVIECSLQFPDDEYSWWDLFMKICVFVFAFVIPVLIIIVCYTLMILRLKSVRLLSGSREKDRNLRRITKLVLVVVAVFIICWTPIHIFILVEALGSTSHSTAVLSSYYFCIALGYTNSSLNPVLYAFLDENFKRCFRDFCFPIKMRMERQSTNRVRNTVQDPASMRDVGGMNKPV
Sequence of Delta-type opioid receptor (P33533 whole entry): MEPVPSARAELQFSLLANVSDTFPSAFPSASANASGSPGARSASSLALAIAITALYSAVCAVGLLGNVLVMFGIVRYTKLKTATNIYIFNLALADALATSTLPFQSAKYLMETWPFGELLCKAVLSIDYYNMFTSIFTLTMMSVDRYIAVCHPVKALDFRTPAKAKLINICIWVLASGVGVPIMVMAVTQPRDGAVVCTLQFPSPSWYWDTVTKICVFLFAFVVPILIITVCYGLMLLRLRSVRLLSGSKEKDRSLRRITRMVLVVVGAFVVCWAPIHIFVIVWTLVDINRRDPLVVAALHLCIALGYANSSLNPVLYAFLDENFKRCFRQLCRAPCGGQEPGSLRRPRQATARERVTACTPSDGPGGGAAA

Oc1ccc2c3c1O[C@H]1c4[nH]c5ccccc5c4C[C@@]4(O)[C@@H](C2)N(CC2CC2)CC[C@]314 [NALTRINDOLE]
Ki [1]: 0.03 µM

O=C1c2c(O)ccc(O)c2C(=O)c2c(NCCNCCO)ccc(NCCNCCO)c21
ΔTm (Nucleic Acid [2]): 23 °C

CN1CCN(c2ccc3[nH]c(-c4ccc5[nH]c(-c6ccc(O)cc6)nc5c4)nc3c2)CC1
Ratio (Nucleic Acid [3]): 2.4

CN1CC[C@]23c4c5ccc(O)c4O[C@H]2c2[nH]c4ccccc4c2C[C@@]3(O)[C@H]1C5 [OXYMORPHINDOLE]
Ki [1]: 2.17 µM | Ki [4]: 0.0008 µM

COc1cccc2c1C(=O)c1c(O)c3c(c(O)c1C2=O)C[C@@](O)(C(=O)CO)C[C@@H]3O[C@H]1C[C@H](N)[C@H](O)[C@H](C)O1
ΔTm (Nucleic Acid [2]): 13 °C

N=C(N)c1ccc(/N=N/Nc2ccc(C(=N)N)cc2)cc1
Ratio (Nucleic Acid [3]): 0.32

CCOc1ccc(-c2nc3cc(-c4nc5cc(N6CCN(C)CC6)ccc5[nH]4)ccc3[nH]2)cc1
Ratio (Nucleic Acid [3]): 3.7

Cn1cc(NC(=O)c2cc(NC(=O)CNC(=N)N)cn2C)cc1C(=O)NCCC(=N)N
Ratio (Nucleic Acid [3]): 0.28

CC[n+]1c(-c2ccccc2)c2cc(N)ccc2c2ccc(N)cc21
ΔTm (Nucleic Acid [5]): 17 °C

COc1cc2cc3c4cc(OC)c(OC)cc4cc[n+]3c(C)c2cc1OC
ΔTm (Nucleic Acid [2]): 18 °C

Cn1cc(NC(=O)c2cc(NC(=O)c3cc(NC=O)cn3C)cn2C)cc1C(=O)NCCC(=N)N
Ratio (Nucleic Acid [3]): 4.4
